Measurements taken from the supplement of paper PMC10307832.

Assays:
Test in all cases: relative viability (nuclei count vs DMSO), 5 days (fraction); higher = more cells survive
BGJ398 + Tozasertib = compound: CCN1CCN(c2ccc(Nc3cc(N(C)C(=O)Nc4c(Cl)c(OC)cc(OC)c4Cl)ncn3)cc2)CC1 [BGJ398] + Cc1cc(Nc2cc(N3CCN(C)CC3)nc(Sc3ccc(NC(=O)C4CC4)cc3)n2)n[nH]1 [Tozasertib] (partner 0.1 µM)
In short: (§1)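 Values are medians from duplicate plates. Each reflects relative viability, defined as the nuclei count of treated wells over that of vehicle wells. Lung cancer cell lines in 1536-well plates were pin-tool dosed one day after seeding with one drug alone or with a fixed anchor-drug dose plus five library-drug doses (not always all listed) in √10 steps, then fixed, stained and imaged at 4× after 5 days.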

BGJ398 + Decitabine = compound: CCN1CCN(c2ccc(Nc3cc(N(C)C(=O)Nc4c(Cl)c(OC)cc(OC)c4Cl)ncn3)cc2)CC1 [BGJ398] + Nc1ncn([C@H]2C[C@H](O)[C@@H](CO)O2)c(=O)n1 [Decitabine] (partner 2 µM)
In short: as §1

[1] = compound: C1=CC2=NC=CN=C2C=C1/C=C/3\C(=O)NC(=O)S3 + O=C(c1cc(Cc2n[nH]c(=O)c3ccccc23)ccc1F)N1CCN(C(=O)C2CC2)CC1 [Olaparib] (partner 8 µM)
In short: as §1

[2] = compound: C1=CC2=NC=CN=C2C=C1/C=C/3\C(=O)NC(=O)S3 + CS(=O)(=O)CCNCc1ccc(-c2ccc3ncnc(Nc4ccc(OCc5cccc(F)c5)c(Cl)c4)c3c2)o1 [Lapatinib] (partner 2 µM)
In short: as §1

Row | Cell Line | relative viability (BGJ398 + Tozasertib; first compound 0.01 µM) | relative viability (BGJ398 + Tozasertib; first compound 0.03162 µM) | relative viability (BGJ398 + Tozasertib; first compound 0.1 µM) | relative viability (BGJ398 + Tozasertib; first compound 0.3162 µM) | relative viability (BGJ398 + Tozasertib; first compound 1 µM) | relative viability (BGJ398 + Decitabine; first compound 0.01 µM) | relative viability (BGJ398 + Decitabine; first compound 0.03162 µM) | relative viability (BGJ398 + Decitabine; first compound 0.1 µM) | relative viability (BGJ398 + Decitabine; first compound 0.3162 µM) | relative viability (BGJ398 + Decitabine; first compound 1 µM) | relative viability ([1]; first compound 0.02 µM) | relative viability ([1]; first compound 0.06325 µM) | relative viability ([1]; first compound 0.2 µM) | relative viability ([1]; first compound 0.6325 µM) | relative viability ([1]; first compound 2 µM) | relative viability ([2]; first compound 0.02 µM) | relative viability ([2]; first compound 0.06325 µM) | relative viability ([2]; first compound 0.2 µM) | relative viability ([2]; first compound 0.6325 µM) | relative viability ([2]; first compound 2 µM)
1 | 201T | 1.05 | 0.877 | 0.965 | 0.914 | 0.91 | 0.958 | 0.814 | 0.835 | 0.797 | 0.807 | 0.878 | 0.81 | 0.844 | 0.828 | 0.866 | 0.854 | 1.02 | 0.979 | 0.972 | 0.8
2 | A549 | – | – | – | – | – | 0.155 | 0.288 | 0.232 | 0.289 | 0.223 | 0.284 | 0.133 | 0.366 | 0.335 | 0.12 | 0.893 | 1.04 | 1.04 | 0.9 | 0.874
3 | A-427 | 0.192 | 0.153 | 0.162 | 0.179 | 0.152 | 0.559 | 0.564 | 0.594 | 0.515 | 0.481 | 0.71 | 0.83 | 0.716 | 0.716 | 0.634 | 1.03 | 1.04 | 1.07 | 0.994 | 1.08
4 | ABC-1 | 0.186 | 0.168 | 0.197 | 0.173 | 0.198 | 1.17 | 0.955 | 0.966 | – | 1.18 | 0.712 | 0.88 | 0.859 | 0.782 | 0.735 | 1.06 | 0.754 | 1.18 | 1 | 1.02
5 | BEN | 0.587 | 0.488 | 0.543 | 0.513 | 0.527 | 0.604 | 0.688 | 0.796 | 0.681 | 0.591 | 1.09 | 1.05 | 1.02 | 1.12 | 1.03 | 0.624 | 0.754 | 0.817 | 0.608 | 0.505
6 | CAL-12T | 0.285 | 0.324 | 0.279 | 0.233 | 0.243 | – | – | – | – | – | 0.64 | 0.784 | 0.692 | 0.779 | 0.672 | 0.512 | 0.708 | 0.659 | 0.629 | 0.751
7 | COR-L23 | 0.216 | 0.248 | 0.205 | 0.188 | 0.182 | 0.36 | 0.438 | 0.507 | 0.42 | 0.365 | 0.273 | 0.383 | 0.323 | 0.401 | 0.36 | 0.832 | 1.31 | 0.921 | 0.771 | 0.923
8 | COR-L 105 | 0.291 | 0.346 | 0.339 | 0.418 | 0.324 | 0.636 | 0.587 | 0.637 | 0.601 | 0.69 | 0.674 | 0.711 | 0.701 | 0.819 | 0.723 | 0.332 | 0.343 | 0.368 | 0.335 | 0.289
9 | Calu-6 | – | – | – | – | – | – | – | – | – | – | 0.602 | 0.621 | 0.597 | 0.592 | 0.568 | 1.05 | 1.14 | 0.97 | 1.06 | 1
10 | ChaGo-K-1 | 0.229 | 0.24 | 0.19 | 0.215 | 0.226 | 0.503 | 0.477 | 0.562 | 0.558 | 0.537 | 0.385 | 0.351 | 0.431 | 0.412 | 0.412 | – | – | – | – | –
11 | EBC-1 | – | – | – | – | – | – | – | – | – | – | 0.626 | 0.84 | 0.754 | 0.76 | 0.723 | 0.221 | 0.203 | 0.191 | 0.189 | 0.231
12 | EKVX | 0.387 | 0.421 | 0.431 | 0.436 | 0.389 | 0.315 | 0.294 | 0.388 | 0.349 | 0.316 | 0.668 | 0.828 | 0.824 | 0.812 | 0.838 | 0.215 | 0.18 | 0.251 | 0.207 | 0.146
13 | EMC-BAC-2 | 0.28 | 0.314 | 0.3 | 0.276 | 0.312 | 0.96 | 1.03 | 0.97 | 0.915 | 0.932 | 0.463 | 0.498 | 0.572 | 0.489 | 0.39 | 0.829 | 0.96 | 0.962 | 0.762 | 0.555
14 | EPLC-272H | 0.17 | 0.276 | 0.203 | 0.288 | 0.227 | 0.391 | 0.3 | 0.38 | 0.303 | 0.323 | 0.865 | 0.64 | 0.971 | 0.898 | 0.542 | 0.895 | 1.18 | 1.11 | 0.916 | 0.576
15 | H3255 | 0.628 | – | 0.472 | 0.743 | 0.608 | 0.585 | – | 0.591 | – | 0.681 | 0.583 | 0.509 | 0.56 | 0.594 | 0.517 | 0.318 | 0.241 | 0.282 | 0.238 | 0.217
16 | HARA | 0.0926 | 0.116 | 0.0915 | 0.0847 | 0.0857 | 0.587 | 0.412 | 0.389 | 0.371 | 0.38 | 0.899 | 0.54 | 0.687 | 1.06 | 0.615 | 0.668 | 0.984 | 0.997 | 0.633 | 0.31
17 | HCC-15 | 0.351 | 0.43 | 0.436 | 0.349 | 0.389 | 0.571 | 0.6 | 0.78 | 0.73 | 0.618 | 0.699 | 0.612 | 0.71 | 0.675 | 0.634 | 0.84 | 0.87 | 0.881 | 0.792 | 0.84
18 | HCC-44 | 0.77 | 0.947 | 1.07 | 1.1 | 0.698 | 0.886 | 0.914 | 0.959 | 0.976 | 0.8 | 0.9 | 1.07 | 0.924 | 0.965 | 0.945 | 0.961 | 1.09 | 0.975 | 0.993 | 0.793
